Reference: patent US10245261B2, “Substituted indol-5-ol derivatives and their therapeutic applications” (NantBioScience, Inc., priority 2013, dated 2019)

Columns and labels:
Assay in all cases: KinaseProfiler kinase assay
Assay type in all cases: biochemical
mTOR(h) = mTOR(h) (Homo sapiens, UniProt P42345)
Aurora-B(h) = Aurora-B(h) (Homo sapiens, UniProt Q96GD4)
How it was run: (§1)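 Steps: compound diluted from DMSO into MOPS/BSA assay buffer; MgATP mix with [γ-33P]ATP added to start; 40 min incubation at room temperature; phosphoric acid stop; filtermat spotting, washing in 50 mM phosphoric acid and methanol; scintillation counting.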

PDK1(h) = PDK1(h) (Homo sapiens, UniProt O15530)
How it was run: as §1

BrSK2(h) = BrSK2(h) (Homo sapiens, UniProt Q8IWQ3)
How it was run: as §1

Src(T341M)(h) = Src(T341M)(h) (Homo sapiens, UniProt P12931, T341M)
How it was run: as §1

TrkB(h) = TrkB(h) (Homo sapiens, UniProt Q16620)
How it was run: as §1

NEK3(h) = NEK3(h) (Homo sapiens, UniProt P51956)
How it was run: as §1

CHK2(R145W)(h) = CHK2(R145W)(h) (Homo sapiens, UniProt O96017, R145W)
CK1γ1(h) = CK1γ1(h) (Homo sapiens, UniProt Q9HCP0)
PI3KC2α(h) = PI3KC2α(h) (Homo sapiens, UniProt O00443)
[1] = biological target: PI3 Kinase (p110β/p85α)(h) (Homo sapiens, UniProt P42338)
[2] = biological target: PI3 Kinase (p110α(H1047R)/p85α)(h) (Homo sapiens, UniProt P42336, H1047R)
CLK2(h) = CLK2(h) (Homo sapiens, UniProt P49760)
CaMKIIδ(h) = CaMKIIδ(h) (Homo sapiens, UniProt Q13557)
IR(h), activated = IR(h), activated (Homo sapiens, UniProt P06213)
CDK5/p25(h) = CDK5/p25(h) (Homo sapiens, UniProt Q00535)
BRK(h) = BRK(h) (Homo sapiens, UniProt Q13882)
PI3 Kinase (p120γ)(h) = PI3 Kinase (p120γ)(h) (Homo sapiens, UniProt P48736)
Lck(h) = Lck(h) (Homo sapiens, UniProt P06239)
Sequence of Lck(h) (P06239 whole entry): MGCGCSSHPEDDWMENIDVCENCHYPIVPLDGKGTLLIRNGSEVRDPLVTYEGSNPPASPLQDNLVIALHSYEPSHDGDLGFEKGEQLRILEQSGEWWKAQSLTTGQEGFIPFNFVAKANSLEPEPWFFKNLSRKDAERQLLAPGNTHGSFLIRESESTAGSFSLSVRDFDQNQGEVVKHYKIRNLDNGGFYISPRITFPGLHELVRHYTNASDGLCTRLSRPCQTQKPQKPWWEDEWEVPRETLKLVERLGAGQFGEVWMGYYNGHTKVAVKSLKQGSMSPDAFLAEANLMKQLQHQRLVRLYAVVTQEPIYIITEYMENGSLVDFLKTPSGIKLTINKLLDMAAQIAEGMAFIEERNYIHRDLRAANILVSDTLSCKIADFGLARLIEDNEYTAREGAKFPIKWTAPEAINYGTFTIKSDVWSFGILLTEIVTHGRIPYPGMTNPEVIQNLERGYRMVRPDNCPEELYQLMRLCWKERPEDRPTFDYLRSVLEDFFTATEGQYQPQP

Sequence of CLK2(h) (P49760 whole entry): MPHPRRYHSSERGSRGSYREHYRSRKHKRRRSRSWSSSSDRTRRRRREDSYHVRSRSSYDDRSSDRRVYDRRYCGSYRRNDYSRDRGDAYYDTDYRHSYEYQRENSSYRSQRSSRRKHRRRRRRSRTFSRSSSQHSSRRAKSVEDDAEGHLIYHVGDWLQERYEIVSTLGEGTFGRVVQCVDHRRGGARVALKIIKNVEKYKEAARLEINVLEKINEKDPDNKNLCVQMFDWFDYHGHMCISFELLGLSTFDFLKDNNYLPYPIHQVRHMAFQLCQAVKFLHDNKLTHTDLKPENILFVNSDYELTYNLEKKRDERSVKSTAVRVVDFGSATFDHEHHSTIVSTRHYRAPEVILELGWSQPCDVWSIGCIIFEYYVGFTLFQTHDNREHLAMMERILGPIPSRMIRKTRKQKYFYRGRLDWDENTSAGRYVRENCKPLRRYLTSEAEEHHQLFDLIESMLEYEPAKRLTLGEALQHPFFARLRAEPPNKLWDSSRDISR
Sequence of Aurora-B(h) (Q96GD4 whole entry): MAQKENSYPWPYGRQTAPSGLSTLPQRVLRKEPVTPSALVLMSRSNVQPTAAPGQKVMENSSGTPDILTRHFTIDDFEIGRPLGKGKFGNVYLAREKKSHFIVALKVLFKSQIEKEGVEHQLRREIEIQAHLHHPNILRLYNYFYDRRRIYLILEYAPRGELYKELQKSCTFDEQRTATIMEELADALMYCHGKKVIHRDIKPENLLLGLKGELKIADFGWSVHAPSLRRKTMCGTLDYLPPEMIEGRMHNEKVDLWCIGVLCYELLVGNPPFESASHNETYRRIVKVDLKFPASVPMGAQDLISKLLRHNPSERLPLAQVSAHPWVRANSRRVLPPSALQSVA
Sequence of CK1γ1(h) (Q9HCP0 whole entry): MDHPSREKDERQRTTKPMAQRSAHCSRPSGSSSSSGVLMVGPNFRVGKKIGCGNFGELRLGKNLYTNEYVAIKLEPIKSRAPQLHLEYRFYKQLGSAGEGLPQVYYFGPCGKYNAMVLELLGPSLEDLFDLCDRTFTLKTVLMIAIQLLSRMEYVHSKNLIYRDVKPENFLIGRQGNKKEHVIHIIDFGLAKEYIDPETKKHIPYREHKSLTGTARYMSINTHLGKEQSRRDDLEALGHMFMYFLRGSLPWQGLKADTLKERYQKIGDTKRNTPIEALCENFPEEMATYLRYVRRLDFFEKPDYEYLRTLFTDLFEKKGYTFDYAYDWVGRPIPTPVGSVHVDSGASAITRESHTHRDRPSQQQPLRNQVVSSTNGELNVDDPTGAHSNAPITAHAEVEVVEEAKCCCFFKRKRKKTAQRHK
Sequence of BrSK2(h) (Q8IWQ3 whole entry): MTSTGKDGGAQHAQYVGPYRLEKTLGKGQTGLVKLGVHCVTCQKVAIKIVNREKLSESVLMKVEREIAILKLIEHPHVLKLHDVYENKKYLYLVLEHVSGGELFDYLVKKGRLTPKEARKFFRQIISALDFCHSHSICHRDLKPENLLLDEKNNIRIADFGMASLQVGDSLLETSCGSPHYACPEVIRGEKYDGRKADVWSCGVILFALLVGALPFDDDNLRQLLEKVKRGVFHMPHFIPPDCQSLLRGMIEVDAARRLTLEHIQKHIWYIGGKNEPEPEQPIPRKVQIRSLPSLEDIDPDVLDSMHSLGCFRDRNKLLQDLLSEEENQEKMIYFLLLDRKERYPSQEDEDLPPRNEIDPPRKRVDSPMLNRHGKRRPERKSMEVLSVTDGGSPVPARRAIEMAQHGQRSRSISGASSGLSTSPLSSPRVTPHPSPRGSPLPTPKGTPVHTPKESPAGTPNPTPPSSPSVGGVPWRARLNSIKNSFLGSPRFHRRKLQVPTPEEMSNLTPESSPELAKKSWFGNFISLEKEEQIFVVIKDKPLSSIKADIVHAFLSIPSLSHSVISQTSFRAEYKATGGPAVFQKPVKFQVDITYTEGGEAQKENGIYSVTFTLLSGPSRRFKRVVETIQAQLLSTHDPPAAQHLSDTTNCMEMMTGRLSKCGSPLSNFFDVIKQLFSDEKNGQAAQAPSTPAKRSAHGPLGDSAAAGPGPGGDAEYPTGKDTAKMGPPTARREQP
Sequence of PDK1(h) (O15530 whole entry): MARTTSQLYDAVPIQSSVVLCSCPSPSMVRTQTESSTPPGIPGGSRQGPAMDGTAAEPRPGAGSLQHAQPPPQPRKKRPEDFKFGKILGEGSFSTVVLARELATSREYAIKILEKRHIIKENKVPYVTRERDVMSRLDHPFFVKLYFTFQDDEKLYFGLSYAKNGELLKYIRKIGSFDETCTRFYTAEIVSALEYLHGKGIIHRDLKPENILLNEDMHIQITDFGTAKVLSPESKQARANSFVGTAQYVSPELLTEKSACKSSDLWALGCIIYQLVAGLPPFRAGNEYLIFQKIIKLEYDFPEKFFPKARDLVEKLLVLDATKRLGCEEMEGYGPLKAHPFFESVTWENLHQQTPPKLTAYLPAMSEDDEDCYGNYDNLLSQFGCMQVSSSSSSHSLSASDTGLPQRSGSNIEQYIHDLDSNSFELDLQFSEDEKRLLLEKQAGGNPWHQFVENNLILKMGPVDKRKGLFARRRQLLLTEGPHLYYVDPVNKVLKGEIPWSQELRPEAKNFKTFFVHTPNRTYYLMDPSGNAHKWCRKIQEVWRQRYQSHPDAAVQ
Sequence of IR(h), activated (P06213 1005-1310): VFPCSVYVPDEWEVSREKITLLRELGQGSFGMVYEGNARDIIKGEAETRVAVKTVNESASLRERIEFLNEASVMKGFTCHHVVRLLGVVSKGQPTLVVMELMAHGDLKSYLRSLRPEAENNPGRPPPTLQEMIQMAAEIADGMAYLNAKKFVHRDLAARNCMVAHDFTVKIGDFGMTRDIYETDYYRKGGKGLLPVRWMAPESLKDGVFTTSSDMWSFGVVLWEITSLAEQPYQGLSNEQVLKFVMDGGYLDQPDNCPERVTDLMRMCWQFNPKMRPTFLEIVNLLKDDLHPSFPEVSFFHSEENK
Sequence of PI3 Kinase (p120γ)(h) (P48736 whole entry): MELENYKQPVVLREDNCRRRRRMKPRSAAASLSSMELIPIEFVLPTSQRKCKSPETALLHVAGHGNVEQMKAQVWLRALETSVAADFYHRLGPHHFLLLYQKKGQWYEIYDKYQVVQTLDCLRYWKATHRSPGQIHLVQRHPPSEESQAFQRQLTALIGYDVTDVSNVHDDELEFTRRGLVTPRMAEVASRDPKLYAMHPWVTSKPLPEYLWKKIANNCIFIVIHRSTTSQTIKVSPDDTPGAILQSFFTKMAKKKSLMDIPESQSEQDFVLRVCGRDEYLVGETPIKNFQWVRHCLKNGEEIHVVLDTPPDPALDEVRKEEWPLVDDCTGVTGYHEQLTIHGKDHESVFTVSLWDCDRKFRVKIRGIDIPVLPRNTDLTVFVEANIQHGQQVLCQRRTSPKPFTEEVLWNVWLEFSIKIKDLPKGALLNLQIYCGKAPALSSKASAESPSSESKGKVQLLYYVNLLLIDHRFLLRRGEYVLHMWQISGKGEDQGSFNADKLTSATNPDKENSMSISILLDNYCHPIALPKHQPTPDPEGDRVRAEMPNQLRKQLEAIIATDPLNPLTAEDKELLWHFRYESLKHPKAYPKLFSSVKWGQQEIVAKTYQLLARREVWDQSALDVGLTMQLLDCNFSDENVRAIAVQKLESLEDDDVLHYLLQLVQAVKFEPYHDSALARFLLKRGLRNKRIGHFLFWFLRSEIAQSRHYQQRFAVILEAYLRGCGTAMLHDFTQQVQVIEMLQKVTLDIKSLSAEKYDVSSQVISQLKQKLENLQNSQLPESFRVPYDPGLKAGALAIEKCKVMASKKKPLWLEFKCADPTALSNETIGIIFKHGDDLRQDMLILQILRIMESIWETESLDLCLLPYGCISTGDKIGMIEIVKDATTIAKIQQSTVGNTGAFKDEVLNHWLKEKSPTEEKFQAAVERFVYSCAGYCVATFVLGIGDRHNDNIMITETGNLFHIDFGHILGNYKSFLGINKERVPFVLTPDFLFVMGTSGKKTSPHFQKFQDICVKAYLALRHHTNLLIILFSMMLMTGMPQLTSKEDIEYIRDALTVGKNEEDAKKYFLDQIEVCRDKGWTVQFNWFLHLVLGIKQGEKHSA
Sequence of BRK(h) (Q13882 whole entry): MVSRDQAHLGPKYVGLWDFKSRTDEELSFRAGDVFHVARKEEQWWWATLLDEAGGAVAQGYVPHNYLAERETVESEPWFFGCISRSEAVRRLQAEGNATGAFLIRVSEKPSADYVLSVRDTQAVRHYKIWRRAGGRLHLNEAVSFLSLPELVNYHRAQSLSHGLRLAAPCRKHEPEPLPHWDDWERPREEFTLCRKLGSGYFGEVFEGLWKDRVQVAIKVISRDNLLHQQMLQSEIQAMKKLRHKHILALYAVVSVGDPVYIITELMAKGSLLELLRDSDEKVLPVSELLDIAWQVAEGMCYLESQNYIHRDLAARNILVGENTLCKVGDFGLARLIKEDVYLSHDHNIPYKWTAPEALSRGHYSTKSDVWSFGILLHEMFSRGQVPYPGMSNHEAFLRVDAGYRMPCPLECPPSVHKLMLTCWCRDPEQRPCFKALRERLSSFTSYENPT

Compound	inhibition at 0.1 µM (mTOR(h)) [%]	inhibition at 0.1 µM (Aurora-B(h)) [%]	inhibition at 0.1 µM (PDK1(h)) [%]	inhibition at 0.1 µM (BrSK2(h)) [%]	inhibition at 0.1 µM (Src(T341M)(h)) [%]	inhibition at 0.1 µM (TrkB(h)) [%]	inhibition at 0.1 µM (NEK3(h)) [%]	inhibition at 0.1 µM (CHK2(R145W)(h)) [%]	inhibition at 0.1 µM (CK1γ1(h)) [%]	inhibition at 0.1 µM (PI3KC2α(h)) [%]	inhibition at 0.1 µM [1] [%]	inhibition at 0.1 µM [2] [%]	inhibition at 0.1 µM (CLK2(h)) [%]	inhibition at 0.1 µM (CaMKIIδ(h)) [%]	inhibition at 0.1 µM (IR(h), activated) [%]	inhibition at 0.1 µM (CDK5/p25(h)) [%]	inhibition at 0.1 µM (BRK(h)) [%]	inhibition at 0.1 µM (PI3 Kinase (p120γ)(h)) [%]	inhibition at 0.1 µM (Lck(h)) [%]
Cc1cc2c(F)c(Oc3nc(Nc4cc(C5CC5)[nH]n4)cc(N4CCN(C)CC4)n3)ccc2[nH]1 [Compound 10]	25	97	13	60	102	103	18	22	-4	15	0	-8	29	-6	73	24	54	-2	99
Cc1cc2c(F)c(Oc3nc(Nc4cc(C5CC5)[nH]n4)cc(N4CCNCC4)n3)ccc2[nH]1 [Compound 11, N-(5-cyclopropyl-1H-pyrazol-3-yl)-2-((4-fluoro-2-methyl-1H-indol-5-yl)oxy)-6-(piperazin-1-yl)pyrimidin-4-amine]	18	98	3	48	101	100	16	6	-10	-5	-1	-1	-3	6	71	26	73	-1	98
